pIC50: −log10 of the molar value. Where two headings read alike, the source gives them in different places.
Key:
PRMT5 [1] = target: T1, PRMT5 (Homo sapiens, UniProt O14744); test: PRMT5 biochemical IC50 assay with no cofactor; conditions: PRMT5, no cofactor; read-out: No Cofactor/rel IC50
T1 construct: purchased Viva (custom protein)
Description: Table 1 indicates IC50 values (μM) against PRMT5 for exemplary compounds in the presence of SAM as cofactor, with no cofactor, and with MTA as cofactor, respectively (columns 4-6). […] Ki values can be calculated from the IC50 values as described in the Examples section. As detailed in the Examples section, for the assay performed in the presence of SAM, IC50=Ki×1.5 (Ki=IC50/1.5).

[2] = test system: HAP1 MTAP-deleted cell line; test: Viability assay, MTAP-deleted cell line; format: cell-based; conditions: Homo sapiens, read-out: HAP1 MTAP deleted viability
Description: Table 1 additionally indicates IC50 values in a viability assay for the MTAP-deleted cell line (column 10), indicating the effect of treatment with compound on cell survival.

PRMT5 [3] = target: T1, PRMT5; test: PRMT5 biochemical IC50 assay with MTA as cofactor; conditions: PRMT5, MTA as cofactor; read-out: MTA IC50
PRMT5 [4] = target: T1, PRMT5; test: PRMT5 biochemical IC50 assay with SAM as cofactor; conditions: PRMT5, SAM as cofactor; read-out: SAM IC50
[5] = HAP1, viability assay, MTAP-deleted cell line
[6] = HAP1, viability IC50, MTAP-deleted cell line
[7] = HAP1, viability assay, HAP1 MTAP-deleted

T1 sequence (O14744 whole entry): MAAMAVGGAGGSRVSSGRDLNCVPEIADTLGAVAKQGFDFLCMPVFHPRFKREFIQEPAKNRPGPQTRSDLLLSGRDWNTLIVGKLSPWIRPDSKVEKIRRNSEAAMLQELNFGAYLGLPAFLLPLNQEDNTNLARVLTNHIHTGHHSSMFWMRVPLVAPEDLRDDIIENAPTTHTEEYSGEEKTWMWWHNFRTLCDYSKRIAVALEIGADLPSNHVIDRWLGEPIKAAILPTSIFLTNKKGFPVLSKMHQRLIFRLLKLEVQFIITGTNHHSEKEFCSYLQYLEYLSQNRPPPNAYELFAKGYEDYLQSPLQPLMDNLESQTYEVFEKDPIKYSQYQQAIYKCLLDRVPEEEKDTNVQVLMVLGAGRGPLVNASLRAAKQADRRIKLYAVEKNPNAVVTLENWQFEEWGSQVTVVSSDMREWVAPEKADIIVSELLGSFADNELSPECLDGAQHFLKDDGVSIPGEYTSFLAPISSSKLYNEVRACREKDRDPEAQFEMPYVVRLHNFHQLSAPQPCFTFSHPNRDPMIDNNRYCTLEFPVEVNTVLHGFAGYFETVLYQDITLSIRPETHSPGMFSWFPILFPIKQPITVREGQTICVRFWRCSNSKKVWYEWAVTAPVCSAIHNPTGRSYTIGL
T1 sequence (Q9BQA1 whole entry partner): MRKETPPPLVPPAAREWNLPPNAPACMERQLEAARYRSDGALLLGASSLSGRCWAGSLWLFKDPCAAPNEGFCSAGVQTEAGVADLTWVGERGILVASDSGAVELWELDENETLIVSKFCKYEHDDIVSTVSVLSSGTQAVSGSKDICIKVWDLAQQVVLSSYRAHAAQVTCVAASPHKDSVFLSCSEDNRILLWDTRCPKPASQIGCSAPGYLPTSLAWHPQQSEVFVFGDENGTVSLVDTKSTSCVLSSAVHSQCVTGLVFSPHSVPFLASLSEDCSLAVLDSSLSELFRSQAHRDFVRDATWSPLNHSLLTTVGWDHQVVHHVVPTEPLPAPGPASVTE

| pIC50 (PRMT5 [1]) | pIC50 (PRMT5 [3]) | pIC50 (PRMT5 [4]) | Compound | pIC50 [2, 5] | pIC50 [2, 6] | pIC50 [2, 7] |
| --- | --- | --- | --- | --- | --- | --- |
| < 6.30 | < 6.30 | < 6.30 | COc1ncc(NC(=O)C(=O)N2C[C@@H](C)CC[C@@H]2c2ccc(F)cc2)cc1C(N)=O (single isomer, unassigned) [Compound 445] | < 5.00 |  |  |
| < 6.30 | < 6.30 | < 6.30 | CNc1cccc([C@H]2CC[C@H](C)CN2C(=O)C(=O)Nc2cnc(N)c(C)c2)c1 (single isomer, unassigned) [Compound 450] | < 5.00 |  |  |
| < 6.30 | < 6.30 | < 6.30 | CC(=O)Nc1ccc([C@H]2CC[C@H](C)CN2C(=O)C(=O)Nc2cncc(C(N)=O)c2)cc1 (single isomer, unassigned) [Compound 452] | < 5.00 |  |  |
| < 6.30 | < 6.30 | < 6.30 | C[C@H]1CC[C@H](c2ccc(NCC(F)(F)F)cc2)N(C(=O)C(=O)Nc2cncc(C(N)=O)c2)C1 (single isomer, unassigned) [Compound 456] | < 5.00 |  |  |
| < 6.30 | < 6.30 | < 6.30 | COc1ncc(NC(=O)C(=O)N2C[C@@H](C)CC[C@@H]2c2ccc3c(c2)CCC(=O)N3)cc1C(N)=O (single isomer, unassigned) [Compound 673] |  | < 5.00 |  |
| < 6.30 | 6.30 to 7.30 | < 6.30 | Cc1cc(NC(=O)C(=O)N2C[C@H](C)CC[C@H]2c2cc(Cl)cc(C(F)(F)F)c2)cnc1N (single isomer, unassigned) [Compound 679] |  | < 5.00 |  |
| < 6.30 | < 6.30 | < 6.30 | C[C@H]1CC[C@H](c2cc(F)c3[nH]ncc3c2)N(C(=O)C(=O)Nc2cncc(C(N)=O)c2)C1 (single isomer, unassigned) [Compound 680] |  | < 5.00 |  |
| < 6.30 | 6.30 to 7.30 | < 6.30 | Cc1cc(NC(=O)C(=O)N2C[C@@H](C)CC[C@@H]2c2cc(F)cc(Cl)c2)cnc1N (single isomer, unassigned) [Compound 682] |  | < 5.00 |  |
| < 6.30 | < 6.30 | < 6.30 | CCc1cc(NC(=O)C(=O)N2C[C@H](C)CC[C@H]2c2ccc3c(c2)C(=O)NC3)cnc1N (single isomer, unassigned) [Compound 695] |  | < 5.00 |  |
| < 6.30 | < 6.30 | < 6.30 | Cc1ncc(NC(=O)C(=O)N2C[C@@H](C)CC[C@@H]2c2ccc3c(c2)CCC(=O)N3)cc1C(F)(F)F (single isomer, unassigned) [Compound 698] |  | < 5.00 |  |
| < 6.30 | < 6.30 | < 6.30 | CCc1cc(NC(=O)C(=O)N2C[C@H](C)CC[C@H]2c2ccc3c(c2)CNC3=O)cnc1N (single isomer, unassigned) [Compound 699, N-(6-amino-5-ethylpyridin-3-yl)-2-(5-methyl-2-(1-oxoisoindolin-5-yl)piperidin-1-yl)-2-oxoacetamide] |  | < 5.00 |  |
| < 6.30 | < 6.30 | < 6.30 | Cc1cc(NC(=O)C(=O)N2C[C@H](C)CC[C@H]2c2cc(F)cc(F)c2)cnc1N (single isomer, unassigned) [Compound 712, N-(6-amino-5-methylpyridin-3-yl)-2-(2-(3,5-difluorophenyl)-5-methylpiperidin-1-yl)-2-oxoacetamide] |  |  | < 5.00 |
| < 6.30 | < 6.30 | < 6.30 | Cc1cc(NC(=O)C(=O)N2C[C@@H](C)C(F)(F)C[C@@H]2c2ccccc2)cnc1N (single isomer, unassigned) [Compound 713] |  |  | < 5.00 |
| < 6.30 | < 6.30 | < 6.30 | CNS(=O)(=O)c1ccc([C@@H]2CC[C@@H](C)CN2C(=O)C(=O)Nc2cncc(C(N)=O)c2)cc1 (single isomer, unassigned) [Compound 723] |  |  | < 5.00 |
| < 6.30 | < 6.30 | < 6.30 | CC(=O)Nc1ccc([C@H]2CC[C@H](C)CN2C(=O)C(=O)Nc2cncc(C(N)=O)c2)cn1 (single isomer, unassigned) [Compound 905] | < 5.00 |  |  |
| < 6.30 | < 6.30 | < 6.30 | Cc1cc(NC(=O)C(=O)N2C[C@H](C)CC[C@H]2c2ccc(S(C)(=O)=O)cc2)cnc1N (single isomer, unassigned) [Compound 938] | < 5.00 |  |  |
| < 6.30 | < 6.30 | < 6.30 | Cc1cc(NC(=O)C(=O)N2C[C@@H](C)CC[C@@H]2c2cccc3c2CCN3)cnc1N (single isomer, unassigned) [Compound 957] | < 5.00 |  |  |
| < 6.30 | < 6.30 | < 6.30 | Cc1cc(NC(=O)C(=O)N2C[C@@H](C)CC[C@@H]2c2ccc3[nH]nc(N)c3c2)cnc1C (single isomer, unassigned) [Compound 958] | < 5.00 |  |  |
| < 6.30 | < 6.30 | < 6.30 | C[C@H]1CC[C@H](c2cc3cn[nH]c3s2)N(C(=O)C(=O)Nc2cncc(C(N)=O)c2)C1 (single isomer, unassigned) [Compound 971, 5-(2-(5-methyl-2-(1H-thieno[2,3-c]pyrazol-5-yl)piperidin-1-yl)-2-oxoacetamido)nicotinamide] | < 5.00 |  |  |
| 6.30 to 7.30 | > 7.30 | 6.30 to 7.30 | Cc1cc(NC(=O)C(=O)N2C[C@@H](C)CC[C@@H]2c2ccc(S(C)(=O)=O)cc2)cnc1N (single isomer, unassigned) [Compound 976] | 5.00 to 6.00 |  |  |
| < 6.30 | < 6.30 | < 6.30 | Cc1cc(NC(=O)C(=O)N2C[C@H](C)CC[C@H]2c2ccc3sc(N)nc3c2)cnc1N (single isomer, unassigned) [Compound 981] | < 5.00 |  |  |
| < 6.30 | < 6.30 | < 6.30 | CCc1cc(NC(=O)C(=O)N2C[C@@H](C)CC[C@@H]2c2ccc(NS(C)(=O)=O)nc2)cnc1N (single isomer, unassigned) [Compound 983] | < 5.00 |  |  |
| < 6.30 | < 6.30 | < 6.30 | CCc1cc(NC(=O)C(=O)N2C[C@H](C)CC[C@H]2c2ccc3sc(N)nc3c2)cnc1N (single isomer, unassigned) [Compound 984] | < 5.00 |  |  |
| < 6.30 | < 6.30 | < 6.30 | C[C@H]1CC[C@H](c2ccc(NS(C)(=O)=O)nc2)N(C(=O)C(=O)Nc2cncc(C(N)=O)c2)C1 (single isomer, unassigned) [Compound 985] | < 5.00 |  |  |
| 6.30 to 7.30 | > 7.30 | 6.30 to 7.30 | C[C@H]1CC[C@H](c2ccc3sc(N)nc3c2)N(C(=O)C(=O)Nc2cncc(C(N)=O)c2)C1 (single isomer, unassigned) [Compound 987] | 5.00 to 6.00 |  |  |
| < 6.30 | < 6.30 | < 6.30 | Cc1cc(NC(=O)C(=O)N2C[C@H](C)CC[C@H]2c2ccc3c(c2)CCNC3=O)cnc1N (single isomer, unassigned) [Compound 994] | < 5.00 |  |  |
| > 7.30 | > 7.30 | 6.30 to 7.30 | CCc1cc(NC(=O)C(=O)N2C[C@@H](C)CC[C@@H]2c2ccc3sc(N)nc3c2)cnc1N (single isomer, unassigned) [Compound 996] | > 6.00 |  |  |

From patent US11999727B2 (Tango Therapeutics, Inc., priority 2020, dated 2024)
